Assay results taken from US12331040B2 (Karyopharm Therapeutics Inc., priority 2013, dated 2025).
pIC50: −log10 of the molar value. Where two headings read alike, the source gives them in different places.

Legend:
Assay in all cases: MTT cell proliferation assay
Format in all cases: cell-based
3T3 cells = conditions: Mus musculus, NIH3T3, approximately 64-72 hours incubation
How it was run: (§1)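 Cytotoxicity was measured by MTT: OD490 of the solubilized formazan after roughly 4 h with MTT reagent, reported as mean percent inhibition relative to the negative control. Test compounds covered eight concentrations between 1 nM and 30 μM, added to 5,000–10,000 cells per well that had attached overnight.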

MS751 cells = conditions: Homo sapiens, MS751, MS751 cells, approximately 64-72 hours incubation
How it was run: as §1

Z138 cells = conditions: Homo sapiens, Z-138, Z138 cells, approximately 64-72 hours incubation
How it was run: as §1

[1] = read-out: MTT Assay IC50 MS-751
[2] = read-out: MTT Assay IC50, MS-751
[3] = read-out: MTT Assay IC50, Z-138

SMILES	pIC50 (3T3 cells; read-out: MTT Assay IC50 3T3)	pIC50 (MS751 cells; [1])	pIC50 (Z138 cells; read-out: MTT Assay IC50 Z-138)	pIC50 (3T3 cells; read-out: MTT Assay IC50, 3T3)	pIC50 (MS751 cells; [2])	pIC50 (Z138 cells; [3])
Nc1ccc(/C=C/C(=O)NCc2cc3cc(-c4ccc(F)c(C(=O)N5CCOCC5)c4)cc(Cl)c3o2)cn1 [Compound 562, (E)-3-(6-aminopyridin-3-yl)-N-((7-chloro-5-(4-fluoro-3-(morpholine-4-carbonyl)phenyl)benzofuran-2-yl)methyl)acrylamide]	< 5.00	> 7.00	> 7.00			
Nc1ccc(/C=C/C(=O)NCc2cc3cc(-c4ccc(C(=O)N5CC(F)(F)C5)cn4)cc(C(F)(F)F)c3o2)cn1 [Compound 645, (E)-3-(6-aminopyridin-3-yl)-N-((5-(5-(3,3-difluoroazetidine-1-carbonyl)pyridin-2-yl)-7-(trifluoromethyl)benzofuran-2-yl)methyl)acrylamide]	< 5.00	5.30 to 7.00	> 7.00			
Nc1ccc(/C=C/C(=O)NCc2cc3cc(-c4ccc(C(=O)CN5CCOCC5)cc4)cc(Cl)c3o2)cn1 [Compound 507, (E)-3-(6-aminopyridin-3-yl)-N-((7-chloro-5-(4-(2-morpholinoacetyl)phenyl)benzofuran-2-yl)methyl)acrylamide]	< 5.00	5.30 to 7.00	5.30 to 7.00			
Nc1ccc(/C=C/C(=O)NCc2cc3cc(-c4ccc(C(=O)N5CCC(F)(F)CC5)s4)cc(C(F)(F)F)c3o2)cn1 [Compound 685, (E)-3-(6-aminopyridin-3-yl)-N-((5-(5-(4,4-difluoropiperidine-1-carbonyl)thiophen-2-yl)-7-(trifluoromethyl)benzofuran-2-yl)methyl)acrylamide]				< 5.00	5.30 to 7.00	5.30 to 7.00
O=C(/C=C/c1cccnc1)NCc1cc2cc(-c3ccc(C(=O)N4CCC(F)(F)CC4)cc3)cc(-c3cccc(F)c3)c2o1 [Compound 727, (E)-N-((5-(4-(4,4-difluoropiperidine-1-carbonyl)phenyl)-7-(3-fluorophenyl)benzofuran-2-yl)methyl)-3-(pyridin-3-yl)acrylamide]				> 7.00	> 7.00	> 7.00
Nc1ccc(/C=C/C(=O)NCc2cc3c(C(F)(F)F)cc(-c4ccc(C(=O)N5CCC(F)(F)CC5)cn4)cc3o2)cn1 [Compound 762, (E)-3-(6-aminopyridin-3-yl)-N-((6-(5-(4,4-difluoropiperidine-1-carbonyl)pyridin-2-yl)-4-(trifluoromethyl)benzofuran-2-yl)methyl)acrylamide]				< 5.00	5.00 to 5.30	5.30 to 7.00
CN1CCN(C(=O)c2ccc(-c3cc(Cl)c4oc(CNC(=O)/C=C/c5ccc(N)nc5)cc4c3)cc2)CC1 [Compound 576, (E)-3-(6-aminopyridin-3-yl)-N-((7-chloro-5-(4-(4-methylpiperazine-1-carbonyl)phenyl)benzofuran-2-yl)methyl)acrylamide]	< 5.00	5.30 to 7.00	5.30 to 7.00			
Nc1ccc(/C=C/C(=O)NCc2cc3cc(-c4ccc(C(=O)N5CC[C@@H](F)C5)cc4)cc(C(F)(F)F)c3o2)cn1 [Compound 522, (R,E)-3-(6-aminopyridin-3-yl)-N-((5-(4-(3-fluoropyrrolidine-1-carbonyl)phenyl)-7-(trifluoromethyl)benzofuran-2-yl)methyl)acrylamide]	< 5.00	5.30 to 7.00	5.30 to 7.00			
CCS(=O)(=O)c1ccc(-c2cc(-c3ccc(F)cc3)c3oc(CNC(=O)/C=C/c4ccc(N)nc4)cc3c2)cc1 [Compound 709, (E)-3-(6-aminopyridin-3-yl)-N-((5-(4-(ethylsulfonyl)phenyl)-7-(4-fluorophenyl)benzofuran-2-yl)methyl)acrylamide]				< 5.00	> 7.00	> 7.00
Nc1ccc(/C=C/C(=O)NCc2cc3cc(-c4ccc(C(=O)N5CCC(F)CC5)cc4)cc(Cl)c3o2)cn1 [Compound 598, (E)-3-(6-aminopyridin-3-yl)-N-((7-chloro-5-(4-(4-fluoropiperidine-1-carbonyl)phenyl)benzofuran-2-yl)methyl)acrylamide]	< 5.00	5.30 to 7.00	5.30 to 7.00			
Nc1ccc(/C=C/C(=O)NCc2cc3cc(-c4ccc(C(=O)N5CC(O)(C(F)(F)F)C5)cn4)cc(C(F)(F)F)c3o2)cn1 [Compound 747, (E)-3-(6-aminopyridin-3-yl)-N-((5-(5-(3-hydroxy-3-(trifluoromethyl)azetidine-1-carbonyl)pyridin-2-yl)-7-(trifluoromethyl)benzofuran-2-yl)methyl)acrylamide]				< 5.00	5.30 to 7.00	5.30 to 7.00
CC1(F)CCN(C(=O)c2ccc(-c3cc(C(F)(F)F)c4oc(CNC(=O)/C=C\c5ccc(N)nc5)cc4c3)nc2)C1 (single isomer, unassigned) [Compound 656, (Z)-3-(6-aminopyridin-3-yl)-N-((5-(5-(3-fluoro-3-methylpyrrolidine-1-carbonyl)pyridin-2-yl)-7-(trifluoromethyl)benzofuran-2-yl)methyl)acrylamide]	< 5.00	5.00 to 5.30	5.30 to 7.00			
Nc1ccc(/C=C/C(=O)NCc2cc3cc(-c4ccc(C(=O)N5CCC(F)(F)CC5)cc4)cc(-c4ccc(F)cc4F)c3o2)cn1 [Compound 736, (E)-3-(6-aminopyridin-3-yl)-N-((7-(2,4-difluorophenyl)-5-(4-(4,4-difluoropiperidine-1-carbonyl)phenyl)benzofuran-2-yl)methyl)acrylamide]				5.30 to 7.00	> 7.00	> 7.00
CC1(O)CN(C(=O)c2ccc(-c3cc(C(F)(F)F)c4oc(CNC(=O)/C=C/c5ccc(N)nc5)cc4c3)nc2)C1 [Compound 621, (E)-3-(6-aminopyridin-3-yl)-N-((5-(5-(3-hydroxy-3-methylazetidine-1-carbonyl)pyridin-2-yl)-7-(trifluoromethyl)benzofuran-2-yl)methyl)acrylamide]	< 5.00	5.30 to 7.00	5.30 to 7.00			
Nc1ccc(/C=C/C(=O)NCc2cc3cc(-c4ccc(C(=O)N5CCC(O)(C(F)(F)F)C5)cc4)cc(C(F)(F)F)c3o2)cn1 (stereo not drawn) [Compound 606, (E)-3-(6-aminopyridin-3-yl)-N-((5-(4-(3-hydroxy-3-(trifluoromethyl)pyrrolidine-1-carbonyl)phenyl)-7-(trifluoromethyl)benzofuran-2-yl)methyl)acrylamide]	< 5.00	5.30 to 7.00	5.30 to 7.00			
Nc1ccc(/C=C/C(=O)NCc2cc3cc(-c4ccc(C(=O)N5CCOCC5)c(F)c4)cc(Cl)c3o2)cn1 [Compound 549, (E)-3-(6-aminopyridin-3-yl)-N-((7-chloro-5-(3-fluoro-4-(morpholine-4-carbonyl)phenyl)benzofuran-2-yl)methyl)acrylamide]	< 5.00	5.30 to 7.00	5.30 to 7.00			
Nc1ccc(/C=C/C(=O)NCc2cc3cc(-c4ccc(C(=S)N5CCC(F)(F)CC5)cc4)cc(-c4ccncc4)c3o2)cn1 [Compound 705, (E)-3-(6-aminopyridin-3-yl)-N-((5-(4-(4,4-difluoropiperidine-1-carbonothioyl)phenyl)-7-(pyridin-4-yl)benzofuran-2-yl)methyl)acrylamide]				5.30 to 7.00	> 7.00	> 7.00
Nc1ccc(/C=C/C(=O)NCc2cc3cc(-c4ncc(C(=O)N5CCOCC5)cn4)cc(C(F)(F)F)c3o2)cn1 [Compound 593, (E)-3-(6-aminopyridin-3-yl)-N-((5-(5-(morpholine-4-carbonyl)pyrimidin-2-yl)-7-(trifluoromethyl)benzofuran-2-yl)methyl)acrylamide]	< 5.00	5.30 to 7.00	5.30 to 7.00			
Nc1ccc(/C=C/C(=O)NCc2cc3cc(-c4cccc(C(=O)N5CCOCC5)c4)cc(C(F)(F)F)c3o2)cn1 [Compound 717, (E)-3-(6-aminopyridin-3-yl)-N-((5-(3-(morpholine-4-carbonyl)phenyl)-7-(trifluoromethyl)benzofuran-2-yl)methyl)acrylamide]				< 5.00	5.30 to 7.00	> 7.00
O=C(/C=C/c1ccccn1)NCc1cc2cc(-c3ccc(C(=O)N4CCOCC4)cc3)cc(Cl)c2o1 [Compound 539, (E)-N-((7-chloro-5-(4-(morpholine-4-carbonyl)phenyl)benzofuran-2-yl)methyl)-3-(pyridin-2-yl)acrylamide]	< 5.00	5.30 to 7.00	5.30 to 7.00			
Nc1ccc(/C=C/C(=O)NCc2cc3cc(-c4ccc(C(=O)N5CCC(F)(F)CC5)cc4)cc(-c4ccc(Cl)cc4F)c3o2)cn1 [Compound 739, (E)-3-(6-aminopyridin-3-yl)-N-((7-(4-chloro-2-fluorophenyl)-5-(4-(4,4-difluoropiperidine-1-carbonyl)phenyl)benzofuran-2-yl)methyl)acrylamide]				< 5.00	5.30 to 7.00	5.30 to 7.00
Nc1ccc(/C=C/C(=O)NCc2cc3cc(-c4ccc(C(=O)N5CCC(F)(F)C5)cc4)cc(C(F)(F)F)c3o2)cn1 [Compound 603, (E)-3-(6-aminopyridin-3-yl)-N-((5-(4-(3,3-difluoropyrrolidine-1-carbonyl)phenyl)-7-(trifluoromethyl)benzofuran-2-yl)methyl)acrylamide]	< 5.00	5.30 to 7.00	5.30 to 7.00			
Nc1ccc(/C=C/C(=O)NCc2cc3cc(-c4ccc(C(=O)N5CCC(Cl)CC5)cn4)cc(C(F)(F)F)c3o2)cn1 [Compound 614, (E)-3-(6-aminopyridin-3-yl)-N-((5-(5-(4-chloropiperidine-1-carbonyl)pyridin-2-yl)-7-(trifluoromethyl)benzofuran-2-yl)methyl)acrylamide]	< 5.00	5.30 to 7.00	5.30 to 7.00			
